How the values were obtained:
[1] = molecular target: T1, Btk enzyme (His-tagged, full-length) (Homo sapiens, UniProt Q06187); test: Bruton's Tyrosine Kinase (Btk) Inhibition Assay (33P filtration capture); assay type: biochemical; conditions: 100 μM ATP, 30 μM biotinylated SH2 peptide substrate, 30 min at 30° C.
T1 construct: 5-10 nM Btk enzyme (His-tagged, full-length); His
Description: The assay is a capture of radioactive ^33P phosphorylated product through filtration. The interactions of Btk, biotinylated SH2 peptide substrate (Src homology), and ATP lead to phosphorylation of the peptide substrate. Biotinylated product is bound streptavidin sepharose beads. All bound, radiolabeled products are detected by scintillation counter.
Plates assayed are 96-well polypropylene (Greiner) and 96-well 1.2 μm hydrophilic PVDF filter plates (Millipore). Concentrations reported here are final assay concentrations: 10-100 μM compounds in DMSO (Burdick and Jackson), 5-10 nM Btk enzyme (His-tagged, full-length), 30 μM peptide substrate (Biotin-Aca-AAAEEIYGEI-NH2), 100 μM ATP (Sigma), 8 mM imidazole (Sigma, pH 7.2), 8 mM glycerol-2-phosphate (Sigma), 200 μM EGTA (Roche Diagnostics), 1 mM MnCl2 (Sigma), 20 mM MgCl2 (Sigma), 0.1 mg/ml BSA (Sigma), 2 mM DTT (Sigma), 1 μCi ^33P ATP (Amersham), 20% streptavidin sepharose beads (Amersham), 50 mM EDTA (Gibco), 2 M NaCl (Gibco), 2 M NaCl w/1% phosphoric acid (Gibco), microscint-20 (Perkin Elmer).
IC50 determinations are calculated from 10 data points per compound utilizing data produced from a standard 96-well plate assay template. One control compound and seven unknown inhibitors were tested on each plate and each plate was run twice. Typically, compounds were diluted in half-log starting at 100 μM and ending at 3 nM. The control compound was staurosporine. Background was counted in the absence of peptide substrate. Total activity was determined in the presence of peptide substrate. The following protocol was used to determine Btk inhibition.
1) Sample preparation: The test compounds were diluted at half-log increments in assay buffer (imidazole, glycerol-2-phosphate, EGTA, MnCl2, MgCl2, BSA).
2) Bead preparation • a.) rinse beads by centrifuging at 500 g • b.) reconstitute the beads with PBS and EDTA to produce a 20% bead slurry
3) Pre-incubate reaction mix without substrate (assay buffer, DTT, ATP, P ATP) and mix with substrate (assay buffer, DTT, ATP, ^33P ATP, peptide substrate) 30° C. for 15 min.
4) To start assay, pre-incubate 10 μL Btk in enzyme buffer (imidazole, glycerol-2-phosphate, BSA) and 10 μL of test compounds for 10 min at RT.
5) Add 30 μL reaction mixture without or with substrate to Btk and compounds.
6) Incubate 50 μL total assay mix for 30 min at 30° C.
7) Transfer 40 μL of assay to 150 μL bead slurry in filter plate to stop reaction.
8) Wash filter plate after 30 min, with following steps • a. 3×250 μL NaCl • b. 3×250 μL NaCl containing 1% phosphoric acid • c. 1×250 μL H2O
9) Dry plate for 1 h at 65° C. or overnight at RT
10) Add 50 μL microscint-20 and count ^33P cpm on scintillation counter.
Calculate percent activity from raw data in cpm percent activity=(sample−bkg)/(total activity−bkg)×100
Calculate IC50 from percent activity, using one-site dose response sigmoidal model y=A+((B−A)/(1+((x/C)^D)))) • x=cmpd conc, y=% activity, A=min, B=max, C=IC50, D=1 (hill slope)

T1 sequence (Q06187 whole entry): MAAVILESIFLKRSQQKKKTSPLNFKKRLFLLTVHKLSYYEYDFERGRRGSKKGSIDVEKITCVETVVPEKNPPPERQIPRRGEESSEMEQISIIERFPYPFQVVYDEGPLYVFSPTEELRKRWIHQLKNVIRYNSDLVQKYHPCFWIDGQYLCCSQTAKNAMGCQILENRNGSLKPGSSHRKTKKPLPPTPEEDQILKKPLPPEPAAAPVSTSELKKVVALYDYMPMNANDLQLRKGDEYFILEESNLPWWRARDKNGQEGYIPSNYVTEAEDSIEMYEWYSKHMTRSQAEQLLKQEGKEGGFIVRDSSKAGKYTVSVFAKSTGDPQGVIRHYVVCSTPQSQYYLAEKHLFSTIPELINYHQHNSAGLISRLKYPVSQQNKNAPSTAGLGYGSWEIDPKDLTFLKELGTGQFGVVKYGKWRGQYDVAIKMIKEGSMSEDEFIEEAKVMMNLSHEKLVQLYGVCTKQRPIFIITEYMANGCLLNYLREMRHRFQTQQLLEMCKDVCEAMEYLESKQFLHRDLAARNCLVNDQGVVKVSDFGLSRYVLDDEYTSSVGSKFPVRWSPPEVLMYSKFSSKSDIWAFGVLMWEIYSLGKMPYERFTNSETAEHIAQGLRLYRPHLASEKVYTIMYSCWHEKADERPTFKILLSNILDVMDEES

SMILES | melting point [°C] | IC50 [1] [µM]
CCNC(=O)Nc1cc(-c2cccc(NC(=O)c3ccc(C(C)(C)C)cc3)c2C)nn2ccnc12 [Example I-7, 4-tert-Butyl-N-{3-[8-(3-ethyl-ureido)-imidazo[1,2-b]pyridazin-6-yl]-2-methyl-phenyl}-benzamide] | 181 to 183 | 0.022
CNC(=O)Nc1cc(-c2cccc(NC(=O)c3ccc(C(C)(C)C)cc3)c2C)nn2ccnc12 [Example I-8, 4-tert-Butyl-N-{2-methyl-3-[8-(3-methyl-ureido)-imidazo[1,2-b]pyridazin-6-yl]-phenyl}-benzamide] | 163 to 165 | 0.01
Cc1c(NC(=O)c2ccc(C(C)(C)C)cc2)cccc1-c1cc(NC(=O)NCCO)c2nccn2n1 [Example I-11, 4-tert-Butyl-N-(3-{8-[3-(2-hydroxy-ethyl)-ureido]-imidazo[1,2-b]pyridazin-6-yl}-2-methyl-phenyl)-benzamide] | 183 to 184 | 0.019
O=C(Nc1cccc(-c2cc(Nc3ccc(C(=O)N4CCOCC4)cn3)c3nccn3n2)c1CO)c1ccc(C2CC2)cc1 [Example I-43, 4-Cyclopropyl-N-(2-hydroxymethyl-3-{8-[5-(morpholine-4-carbonyl)-pyridin-2-ylamino]-imidazo[1,2-b]pyridazin-6-yl}-phenyl)-benzamide] | – | 0.013
Cn1ccc(Nc2cc(-c3cccc(NC(=O)c4ccc(C5CC5)cc4)c3CO)nn3ccnc23)n1 [Example I-45, 4-Cyclopropyl-N-{2-hydroxymethyl-3-[8-(1-methyl-1H-pyrazol-3-ylamino)-imidazo[1,2-b]pyridazin-6-yl]-phenyl}-benzamide] | – | 0.015
CCNC(=O)Nc1cc(-c2cccc(NC(=O)c3ccc(C(C)(C)C)cc3)c2C)cn2ccnc12 [Example I-53, 4-tert-Butyl-N-{3-[8-(3-ethyl-ureido)-imidazo[1,2-a]pyridin-6-yl]-2-methyl-phenyl}-benzamide] | – | 0.013
CNC(=O)Nc1cc(-c2cccc(NC(=O)c3ccc(C(C)(C)C)cc3)c2C)cn2ccnc12 [Example I-56, 4-tert-Butyl-N-{2-methyl-3-[8-(3-methyl-ureido)-imidazo[1,2-a]pyridin-6-yl]-phenyl}-benzamide] | 148 to 149 | 0.024
Cc1c(NC(=O)c2ccc(C(C)(C)C)cc2)cccc1-c1cc(NC(=O)NCCCN(C)C)c2nccn2c1 [Example I-77, 4-tert-Butyl-N-(3-{8-[3-(3-dimethylamino-propyl)-ureido]-imidazo[1,2-a]pyridin-6-yl}-2-methyl-phenyl)-benzamide] | 182.7 to 199.7 | 0.018
Cc1c(NC(=O)NC2CCC(S(C)(=O)=O)CC2)cccc1-c1cc(Nc2ccc(C(=O)N3CCOCC3)cn2)c2nccn2c1 (centres unmarked) [Example I-218, 1-(4-Methanesulfonyl-cyclohexyl)-3-(2-methyl-3-{8-[5-(morpholine-4-carbonyl)-pyridin-2-ylamino]-imidazo[1,2-a]pyridin-6-yl}-phenyl)-urea] | – | 0.01

— patent publication US8426441B2, “Inhibitors of bruton's tyrosine kinase” (Roche Palo Alto LLC, priority 2007, dated 2013)
